The results in this text go back to US4035394A, “5-Phenyl-2-furanyl-oxo or-hydroxy alkanoic acids and ethyl esters as gastric acid antisecretory agents” (Morton-Norwich Products, Inc., priority 1976, dated 1977).

In this assay the test system is gastric acid secretion. Nature of the assay: modified standard pylorus-ligated secretory testing procedure in the rat. It is filed as in vivo, Sprague-Dawley rat. Conditions: 300 mg/kg p.o. suspension in 0.5% Methocel 1 hour prior to pylorus ligation, 4 hours after ligation; for % Inhibition Gastric Acid Output: titration to pH7, vs control; for % Inhibition Vol. of Gastric Secretion: vs control. On the procedure: Such effect is evidenced using a modified standard pylorus-ligated secretory testing procedure in the rat. Sprague-Dawley rats, weighing 180-210 g and previously fasted for 24 hours, were used. All compounds were given perorally as suspensions in 0.5% Methocel 1 hour prior to pylorus ligation. Under light ether anesthesia, the rat stomach was ligated at the pylorus region. Four hours after ligation the conscious rat was sacrificed by a chloroform overdose. The stomach was carefully excised and its content drained into a centrifuge tube. Samples were centrifuged to separate secretions from debris. Gastric fluid volume reading and determination of sample contamination, based on debris and sample color, was made. Titration was performed on a sample aliquot of 1 ml diluted to a volume of 5 ml using distilled water. The titrant used was 0.1N NaOH. Total gastric acid output in the stomach was determined by titration to pH7. A dose of 300 mg/kg p.o. of a compound was administered to a group of rats and its effect on the volume of gastric secretion and acid output compared to a control group receiving 0.5% Methocel p.o. The activity of each compound based on the degree of inhibition of gastric acid output is set forth in Table I.

Take `CCOC(=O)CC(O)c1ccc(-c2ccc([N+](=O)[O-])cc2)o1` (stereo not drawn) [Example I, Ethyl 3-[5-(4-Nitrophenyl)-2-furanyl]-3-hydroxypropanoate]: the “% Inhibition Gastric Acid Output” value amounted to 43.1% and the “% Inhibition Vol. of Gastric Secretion” value came out at 33.17%.
The corresponding values for `O=C(O)CCC(O)c1ccc(-c2ccc(Cl)cc2)o1` (stereo not drawn) [II, 4-[5-(4-Chlorophenyl)-2-furanyl]-4-hydroxybutanoic Acid] are 72.3% and 47.3%.
Regarding `O=C(O)CC(O)c1ccc(-c2ccccc2Cl)o1` (stereo not drawn) [III, 3-[5-(2-Chlorophenyl)-2-furanyl]-3-hydroxypropanoic Acid], the “% Inhibition Gastric Acid Output” value came out at 95.0% and the “% Inhibition Vol. of Gastric Secretion” value amounted to 33.5%.
On the same counts, the results for `O=C(O)CCC(=O)c1ccc(-c2ccc(Cl)cc2)o1` [IV, B] are 57.1% and 40.7%.
On the same counts, the results for `O=C(O)CC(O)c1ccc(-c2ccc(Cl)cc2Cl)o1` (stereo not drawn) [V, 3-[5-(2,4-Dichlorophenyl)-2-furanyl]-3-hydroxypropanoic Acid] are 45.4% and 3.4%.
The corresponding values for `CCOC(=O)CC(=O)c1ccc(-c2ccc(Cl)cc2)o1` [VI, B] are 50.0% and 19.8%.
